Where two headings read alike, the source gives them in different places.
What was measured:
T-47D = test: Fluorometric resazurin-based cell proliferation assay, T-47D; design: species or system human; details: for IC50: Homo sapiens, T47D, read-out: IC50 T-47D
Description: (§1) To evaluate the anti-proliferative and cytotoxic effect, respectively, of the compounds, a fluorometric resazurin-based cell viability assay was used. Human cancer and non-cancer cell lines (primarily breast cancer) were seeded with low densities into 96-well plates (1,500-20,000 cells per well), and were allowed to adhere for 24 h. Subsequently, the compounds—dissolved to appropriate concentrations in medium—were added to the cells and incubated for 4-72 h. In case the compound treatment was shorter than 72 h, the incubation solution was discarded, cells were rinsed once with cell culture medium and were allowed to proliferate in compound-free medium until 72 h were reached. Subsequently, medium was replaced by 50 μM resazurin in medium, and the cells were incubated for 2 h. Finally, the conversion of resazurin to resorufin by viable, metabolically active cells was measured using a Synergy 2 multiwell plate reader (BioTek, Bad Friedrichshall, Germany) with 540 nm excitation and 590 nm emission filter setting.
(§2) The cytostatic/cytotoxic effects of the new molecules according to this invention were evaluated by using a fluorometric cell proliferation assay. A panel of cell lines (most of them breast cancer) were treated for 4-72 hours with compound. The fluorometric read-out for cell viability was done after 72 hours in any case.

MDA-MB-468 = test: Fluorometric resazurin-based cell proliferation assay, MDA-MB-468; details: Homo sapiens, read-out: IC50 MDA-MB-468
Description: as §1, §2

HT-29 = test: Fluorometric resazurin-based cell proliferation assay, HT-29; design: species or system human; details: 72 h compound treatment
Description: as §1, §2

MDA-MB-231 = test: Fluorometric resazurin-based cell proliferation assay, MDA-MB-231; details: Homo sapiens
Description: as §1, §2

MCF-7 = test: cells; format: cell-based, human; details: 72 h compound treatment
Description: as §1, §2

184B5 = test: Fluorometric resazurin-based cell proliferation assay, 184B5; details: Homo sapiens, 72 h compound treatment
Description: as §1, §2

[1] = tested on: caspases 3 and 7 in breast cancer cell lines; test: Apoptosis assay, effector caspases 3 and 7; format: cell-based, human; details: several breast cancer cell lines
Description: Compound-mediated induction of apoptosis was examined using comercially available luminescent caspase assays (Promega, Mannheim, Germany). Human cancer and non-cancer cell lines (primarily breast cancer) were seeded with densities depending on the incubation time into 96-well plates (5,000-20,000 cells per well for 48 h incubations; 15,000-40,000 cells per well for 16-24 h incubations), and were allowed to adhere for 24 h. Subsequently, the compounds—dissolved to appropriate concentrations in medium—were added to the cells in 70 μL per well. Cells were incubated for 16-48 h under standard growth conditions. For the last hour of incubation, 10 μL/well of 8× resazurin solution (400 μM) were added in order to multiplex the caspase activities with the cell number/cell viability. When the incubation was finished, conversion of resazurin to resorufin was measured as described above. […] Luminescence read-out was done using a Synergy 2 multiwell plate reader (BioTek, Bad Friedrichshall, Germany).
Cells were treated with the indicated compound concentrations for 24 h (A, C) and 48 h (B, D), respectively. Subsequently, activation of effector caspases 3/7 was measured using a luminescence-based caspase-Glo™ assay kit (Promega), and cell viability was fluorimetrically detected using a Resazurin-based cell viability assay. […]

[2] = tested on: breast cancer cell lines (MCF-7, MDA-MB-468); test: Proteome analysis by SILAC; format: cell-based, human; details: various breast cancer cell lines
Description: SILAC was used for the examination of compound-mediated protein deregulations in the cells. In a first step, the incorporation rate of ^13C-labeled L-arginine (“heavy” medium) was determined for the used cell lines.
After finished incubation, the cells were harvested and lysed. […] The gel was cut into gel slices and in-gel digested with trypsin. The samples were measured with a LTQ Orbitrap Velos (Thermo Scientific) coupled with a nano-HPLC. The resulting mass spec-data were analyzed using the MaxQuant software.

SK-N-MC = test: Fluorometric resazurin-based cell proliferation assay, SK-N-MC; details: Homo sapiens, 72 h compound treatment
Description: as §1, §2

HEK293 = test: Fluorometric resazurin-based cell proliferation assay, HEK293; details: Homo sapiens, 72 h compound treatment
Description: as §1, §2

[3] = tested on: panel of cell lines (most of them breast cancer); test: Cell proliferation assay, statements over the panel of cell lines; format: cell-based, human; details: 72 h treatment
Description: as §1, §2

[4] = MDA-MB-231, 72 h, read-out: IC50 MDA-MB-231

Row | SMILES | IC50 (T-47D; 72 h) [nM] | IC50 (MDA-MB-468; MDA-MB-468, 72 h) [nM] | IC50 (MDA-MB-231; [4]) [nM] | IC50 (MCF-7; Homo sapiens, MCF7) [nM] | IC50 (184B5) [nM] | also measured
1 | CCCO[C@H](C[C@H](C(C)C)N(C)C(=O)[C@@H](NC(=O)[C@H]1CCCCN1C)C(C)CC)c1nc(C(=O)N[C@@H](Cc2ccccc2)C[C@H](C)C(=O)O)cs1 (stereo partly drawn) [OC 503] | 8.3 | 8.2 | 10.9 | 4.2 |  | IC50 (HT-29; Homo sapiens, HT-29): 0.8 nM
2 | CCC(C)[C@H](NC(=O)[C@H]1CCCCN1C)C(=O)N(C)[C@H](C[C@@H](OC(C)=O)c1nc(C(=O)N[C@@H](Cc2ccc(F)cc2)C[C@H](C)C(=O)NCCSSc2ccccn2)cs1)C(C)C (stereo partly drawn) [OC 169] | 18.7 | 18.7 | 31 | 18.4 | 26.1 | induction of apoptosis (caspase 3/7 activity) [1]: induction of apoptotic cell death mechanisms; regulation of protein expression (SILAC) [2]: comparable protein regulations
3 | CC[C@H](C)[C@H](NC(=O)[C@H]1CCCCN1C)C(=O)N(COC(=O)CC(C)C)[C@H](C[C@@H](OC(C)=O)c1nc(C(=O)N[C@@H](Cc2ccc(O)cc2)C[C@H](C)C(=O)O)cs1)C(C)C [Tubulysin A, reference compound] |  |  |  |  |  | IC50 (HT-29): 0.75 nM; IC50 (MCF-7): 0.6 nM
4 | CCC(C)[C@H](NC(=O)[C@H]1CCCCN1C)C(=O)N(C)[C@H](C[C@@H](OC(C)=O)c1nc(C(=O)N[C@@H](Cc2ccccc2)C[C@H](C)C(=O)O)cs1)C(C)C (stereo partly drawn) [OC 509] |  |  |  | 0.34 |  | 
5 | CCC(C)[C@H](NC(=O)[C@H]1CCCCN1C)C(=O)N(COC(=O)CC(C)C)[C@H](C[C@@H](OC(C)=O)c1nc(C(=O)N[C@@H](Cc2ccc(O)cc2)C[C@H](C)C(=O)NCCSSc2ccccn2)cs1)C(C)C (stereo partly drawn) [OC 517] | 4.9 | 1 | 1.6 | 1.9 | 6.2 | IC50 (SK-N-MC): 1.1 nM; IC50 (HEK293): 5.9 nM; activity compared to Paclitaxel [3]: several folds more active than Paclitaxel
6 | CCCO[C@H](C[C@H](C(C)C)N(CCC)C(=O)[C@@H](NC(=O)[C@H]1CCCCN1C)C(C)CC)c1nc(C(=O)N[C@@H](Cc2ccc(O)cc2)C[C@H](C)C(=O)O)cs1 (stereo partly drawn) [OC 515] | 0.09 |  |  |  | 0.09 | higher efficacy compared to the reference compound Paclitaxel (T-47D; T-47D cells, 72 h treatment): up to 300 fold
7 | CCCO[C@H](C[C@H](C(C)C)N(CCC)C(=O)[C@@H](NC(=O)[C@H]1CCCCN1C)C(C)CC)c1nc(C(=O)N[C@@H](Cc2ccc(O)cc2)C[C@H](C)C(=O)NCCSSc2ccccn2)cs1 (stereo partly drawn) [OC 516] | 0.2 |  |  |  |  | 
8 | CC(=O)O[C@H]1C(=O)[C@@]2(C)[C@H]([C@H](OC(=O)c3ccccc3)[C@]3(O)C[C@H](OC(=O)[C@H](O)[C@@H](NC(=O)c4ccccc4)c4ccccc4)C(C)=C1C3(C)C)[C@]1(OC(C)=O)CO[C@@H]1C[C@@H]2O [Paclitaxel, reference compound] |  |  |  | 25.5 |  | IC50 (T-47D; 72 h compound treatment): 30.7 nM; IC50 (MDA-MB-468; MDA-MB-468, 72 h compound treatment): 31.1 nM; IC50 (MDA-MB-231; MDA-MB-231, read-out: IC50 MDA-MB-231, 72 h compound treatment): 35.1 nM
9 | CCC(C)[C@H](NC(=O)[C@H]1CCCCN1C)C(=O)N(C)[C@H](C[C@@H](OC(C)=O)c1nc(C(=O)N[C@@H](Cc2ccc(F)cc2)C[C@H](C)C(=O)O)cs1)C(C)C (stereo partly drawn) [OC 501] | 5.4 | 3.6 | 7.2 | 4.1 |  | IC50 (HT-29; Homo sapiens, HT-29): 1.2 nM

Source: patent publication US20150238626A1, “RECEPTOR LIGAND LINKED CYTOTOXIC MOLECULES” (ONTOCHEM GMBH, priority 2012, published 2015)
